Eight compounds from patent US10004701B2, “Methods and compositions for treating infection” (UNIVERSITY OF ROCHESTER, priority 2012, dated 2018) can be followed below.

What all share (test): AK assay 384-well format, Prestwick library screening
The subject of experiment [1] is E. faecium. The format is cell-based, Enterococcus faecium. The conditions noted are these: Enterococcus faecium, 3 h, 50 μM final drug concentration.
In experiment [2] the test system is S. aureus strain USA300-0114. The format is cell-based, Staphylococcus aureus. The settings on record: Staphylococcus aureus, USA300, 3 h, 50 μM final drug concentration.
Experiment [3] deals with K. pneumoniae. Type of experiment: cell-based, Klebsiella pneumoniae. The conditions noted are these: Klebsiella pneumoniae, 3 h, 50 μM final drug concentration.
In experiment [4] the test system is A. baumannii strain 98-37-09. The format is cell-based, Acinetobacter baumannii. The conditions noted are these: Acinetobacter baumannii, 983709, 3 h, 50 μM final drug concentration.
In experiment [5] the test system is P. aeruginosa. Type of experiment: cell-based, Pseudomonas aeruginosa. The settings on record: Pseudomonas aeruginosa, 3 h, 50 μM final drug concentration.
In experiment [6] the test system is E. cloacae. Type of experiment: cell-based, Enterobacter cloacae. The settings on record: Enterobacter cloacae, 3 h, 50 μM final drug concentration.
In experiment [7] the test system is E. coli. Type of experiment: cell-based, Escherichia coli. The conditions noted are these: Escherichia coli, 3 h, 50 μM final drug concentration.
Setting [8] is: planktonic, cutoff for positive-scoring molecules 3-fold increase, read-out: AK-based Prestwick Library Screening Results, E. faecium (fold increase in extracellular AK activity).
Setting [9] is: planktonic, cutoff for positive-scoring molecules 3-fold increase, read-out: AK-based Prestwick Library Screening Results, S. aureus (fold increase in extracellular AK activity).
[10] abbreviates: planktonic, cutoff for positive-scoring molecules 3-fold increase, read-out: AK-based Prestwick Library Screening Results, K. pneumoniae (fold increase in extracellular AK activity).
Setting [11] is: planktonic, cutoff for positive-scoring molecules 3-fold increase, read-out: AK-based Prestwick Library Screening Results, A. baumannii (fold increase in extracellular AK activity).
Where [12] appears, read: planktonic, cutoff for positive-scoring molecules 3-fold increase, read-out: AK-based Prestwick Library Screening Results, P. aeruginosa (fold increase in extracellular AK activity).
Where [13] appears, read: planktonic, cutoff for positive-scoring molecules 3-fold increase, read-out: AK-based Prestwick Library Screening Results, E. cloacae (fold increase in extracellular AK activity).
The mark [14] stands for this setting: planktonic, cutoff for positive-scoring molecules 3-fold increase, read-out: AK-based Prestwick Library Screening Results, E. coli (fold increase in extracellular AK activity).
Where [15] appears, read: 384-well format, cutoff for positive-scoring molecules 3-fold increase, read-out: AK-based Prestwick Library Screening Results, E. faecium (increase in extracellular AK activity).
Where [16] appears, read: 384-well format, cutoff for positive-scoring molecules 3-fold increase, read-out: AK-based Prestwick Library Screening Results, S. aureus (increase in extracellular AK activity).
Setting [17] is: 384-well format, cutoff for positive-scoring molecules 3-fold increase, read-out: AK-based Prestwick Library Screening Results, K. pneumoniae (increase in extracellular AK activity).
[18] abbreviates: 384-well format, cutoff for positive-scoring molecules 3-fold increase, read-out: AK-based Prestwick Library Screening Results, A. baumannii (increase in extracellular AK activity).
Setting [19] is: 384-well format, cutoff for positive-scoring molecules 3-fold increase, read-out: AK-based Prestwick Library Screening Results, P. aeruginosa (increase in extracellular AK activity).
[20] abbreviates: 384-well format, cutoff for positive-scoring molecules 3-fold increase, read-out: AK-based Prestwick Library Screening Results, E. cloacae (increase in extracellular AK activity).
Where [21] appears, read: 384-well format, cutoff for positive-scoring molecules 3-fold increase, read-out: AK-based Prestwick Library Screening Results, E. coli (increase in extracellular AK activity).

Structures can show the parent of a compound that is named as a salt. Where two headings read alike, the source gives them in different places.

Take `CC(COc1ccccc1)N(CCCl)Cc1ccccc1` (centres unmarked) [Phenoxybenzamine hydrochloride]: the fold induction at 50 µM in experiment [1] ([…], read-out: AK-based Prestwick Library Screening Results, E. faecium (fold increase in extracellular AK activity)) is 0.9; in experiment [2] ([…], read-out: AK-based Prestwick Library Screening Results, S. aureus (fold increase in extracellular AK activity)) it was 1.1; in experiment [3] ([…], read-out: AK-based Prestwick Library Screening Results, K. pneumoniae (fold increase in extracellular AK activity)), 1.2; in experiment [4] ([…], read-out: AK-based Prestwick Library Screening Results, A. baumannii (fold increase in extracellular AK activity)) it was 1.3; in experiment [5] ([…], read-out: AK-based Prestwick Library Screening Results, P. aeruginosa (fold increase in extracellular AK activity)) it was 1.1; in experiment [6] ([…], read-out: AK-based Prestwick Library Screening Results, E. cloacae (fold increase in extracellular AK activity)), 1.4. Moreover, in experiment [7] ([…], read-out: AK-based Prestwick Library Screening Results, E. coli (fold increase in extracellular AK activity)), the fold induction at 50 µM is 1.4.

For `N#Cc1ccc(C(c2ccc(C#N)cc2)n2cncn2)cc1` [Letrozole], the fold induction at 50 µM in experiment [1] (planktonic E. faecium, positive cutoff 3-fold increase, read-out: AK-based Prestwick library screening result, E. faecium (fold increase in extracellular AK activity)) worked out at 1; in experiment [2] (planktonic S. aureus, positive cutoff 3-fold increase, read-out: AK-based Prestwick library screening result, S. aureus (fold increase in extracellular AK activity)), 1.2; in experiment [3] (planktonic K. pneumoniae, positive cutoff 3-fold increase, read-out: AK-based Prestwick library screening result, K. pneumoniae (fold increase in extracellular AK activity)), 1.1; in experiment [4] (planktonic A. baumannii, positive cutoff 3-fold increase, read-out: AK-based Prestwick library screening result, A. baumannii (fold increase in extracellular AK activity)), 1.3; in experiment [5] (planktonic P. aeruginosa, positive cutoff 3-fold increase, read-out: AK-based Prestwick library screening result, P. aeruginosa (fold increase in extracellular AK activity)), 1; in experiment [6] (planktonic E. cloacae, positive cutoff 3-fold increase, read-out: AK-based Prestwick library screening result, E. cloacae (fold increase in extracellular AK activity)), 1.4. In addition, the fold induction at 50 µM in experiment [7] (planktonic E. coli, positive cutoff 3-fold increase, read-out: AK-based Prestwick library screening result, E. coli (fold increase in extracellular AK activity)) is 1.2.

Regarding `Cn1c(=O)c2[nH]cnc2n(C)c1=O` [Aminophylline], the fold induction at 50 µM is 0.9 in experiment [1] (setting [8]); 0.6 in experiment [2] (setting [9]); 0.6 in experiment [3] (setting [10]); 0.7 in experiment [4] (setting [11]); 0.8 in experiment [5] (setting [12]); 0.8 in experiment [6] (setting [13]). Moreover, the fold induction at 50 µM in experiment [7] (setting [14]) came to 0.6.

`CNC[C@H](O)[C@@H](O)[C@H](O)[C@H](O)CO` [Meglumine]: the fold induction at 50 µM was determined as 0.8 in experiment [1] (planktonic, […], read-out: AK-based Prestwick Library Screening Results, E. faecium (fold increase in extracellular AK activity)); 0.5 in experiment [2] (planktonic, […], read-out: AK-based Prestwick Library Screening Results, S. aureus (fold increase in extracellular AK activity)); 0.7 in experiment [3] (planktonic, […], read-out: AK-based Prestwick Library Screening Results, K. pneumoniae (fold increase in extracellular AK activity)); 0.5 in experiment [4] (planktonic, […], read-out: AK-based Prestwick Library Screening Results, A. baumannii (fold increase in extracellular AK activity)); 0.5 in experiment [5] (planktonic, […], read-out: AK-based Prestwick Library Screening Results, P. aeruginosa (fold increase in extracellular AK activity)); 0.6 in experiment [6] (planktonic, […], read-out: AK-based Prestwick Library Screening Results, E. cloacae (fold increase in extracellular AK activity)). In experiment [7] (planktonic, […], read-out: AK-based Prestwick Library Screening Results, E. coli (fold increase in extracellular AK activity)), the fold induction at 50 µM worked out at 0.5.

As to `NC(=O)c1cc[n+](CC2=C(C(=O)O)N3C(=O)[C@@H](NC(=O)[C@@H](c4ccccc4)S(=O)(=O)[O-])[C@H]3SC2)cc1` [Cefsulodin sodium salt], the fold induction at 50 µM was found to be 0.9 in experiment [1] (setting [8]); 1 in experiment [2] (setting [9]); 0.7 in experiment [3] (setting [10]); 1.1 in experiment [4] (setting [11]); 8.6 in experiment [5] (setting [12]); 0.9 in experiment [6] (setting [13]). For the same compound, the fold induction at 50 µM in experiment [7] (setting [14]) was 0.9.

In the case of `[H]/N=C(/N)N/C(=N/[H])NCCc1ccccc1` [Phenformin hydrochloride], the fold induction at 50 µM in experiment [1] (setting [15]) was determined as 1; in experiment [2] (setting [16]), 0.7; in experiment [3] (setting [17]) it was 0.6; in experiment [4] (setting [18]) it was 0.8; in experiment [5] (setting [19]) it was 0.7; in experiment [6] (setting [20]) it was 0.8. The fold induction at 50 µM in experiment [7] (setting [21]) worked out at 0.8.

With `Cc1cc(NC(=O)C2=C(O)c3ccccc3S(=O)(=O)N2C)no1` [Isoxicam], the fold induction at 50 µM in experiment [1] (setting [15]) was determined as 1; in experiment [2] (setting [16]) it was 1; in experiment [3] (setting [17]), 1; in experiment [4] (setting [18]), 1; in experiment [5] (setting [19]), 1; in experiment [6] (setting [20]) it was 1.4. For the same compound, in experiment [7] (setting [21]), the fold induction at 50 µM was found to be 1.2.

Consider `CC(C(=O)O)c1ccc(C(=O)c2ccccc2)s1` (centres unmarked) [Tiaprofenic acid], for which the fold induction at 50 µM came to 0.8 in experiment [1] (planktonic E. faecium, cutoff for positive-scoring molecules 3-fold increase, read-out: AK-based Prestwick Library Screening Results, E. faecium (increase in extracellular AK activity)); 0.5 in experiment [2] (planktonic S. aureus, cutoff for positive-scoring molecules 3-fold increase, read-out: AK-based Prestwick Library Screening Results, S. aureus (increase in extracellular AK activity)); 0.5 in experiment [3] (planktonic K. pneumoniae, cutoff for positive-scoring molecules 3-fold increase, read-out: AK-based Prestwick Library Screening Results, K. pneumoniae (increase in extracellular AK activity)); 0.7 in experiment [4] (planktonic A. baumannii, cutoff for positive-scoring molecules 3-fold increase, read-out: AK-based Prestwick Library Screening Results, A. baumannii (increase in extracellular AK activity)); 0.6 in experiment [5] (planktonic P. aeruginosa, cutoff for positive-scoring molecules 3-fold increase, read-out: AK-based Prestwick Library Screening Results, P. aeruginosa (increase in extracellular AK activity)); 0.8 in experiment [6] (planktonic E. cloacae, cutoff for positive-scoring molecules 3-fold increase, read-out: AK-based Prestwick Library Screening Results, E. cloacae (increase in extracellular AK activity)). The fold induction at 50 µM in experiment [7] (planktonic E. coli, cutoff for positive-scoring molecules 3-fold increase, read-out: AK-based Prestwick Library Screening Results, E. coli (increase in extracellular AK activity)) is 0.6.
